# Experimental data published in patent US10544138B2, “Tricyclic kinase inhibitors of MELK and methods of use” (Dana-Farber Cancer Institute, Inc., priority 2015, dated 2020).
# Values joined by “and” are separate entries in the source; they are usually repeats but may differ in a detail not shown here. Identical values can stand only once.
# Tests used:
# PLK1 = PLK1 (Homo sapiens, UniProt P53350); assay: Recombinant mitotic kinase assay, PLK1; format: biochemical; settings: recombinant kinases
# Experimental: […] assays were performed with recombinant protein of the indicated mitotic kinase (left) and AMPK family kinases (right) in the presence of THZ-4-63-1. […] Cells were treated with nocodazole (100 ng/ml) for 18 h or not treated (Asyn., asynchronous). Nocodazole-arrested mitotic cells (M) were isolated via shake-off. The attached cells enriched in G2 phase (G2) were harvested. A portion of the mitotic cells were washed off nocodazole and released into G1 phase after 4 hours of incubation (G1). […] In Panel D, mitotic lysates were prepared from the indicated cells, and treated with λ-phosphatase at 30° C. In Panel E, nocodazole-arrested mitotic cells were treated with increasing concentration of THZ-4-63-1 for 30 min. Cell lysates were subjected to immunoblotting.
# To discover a selective MELK inhibitor, a few molecule scaffolds with the potential of binding to MELK were identified, including 2,4-disubstituted pyrimidines and benzonaphthyridinones. […] To investigate if THZ-4-63-1 confers selective inhibition on MELK, we tested its effect on other mitotic kinases. In assays using recombinant kinases, MELK kinase activity was 20-fold more sensitive to THZ-4-63-1, than that of Aurora A, Aurora B, CDK1, or PLK1 (FIG. 1B).
# [1] = test system: metaphase chromosome alignment; assay: Metaphase chromosome alignment, immunofluorescence after MG132; format: cell-based; settings: 5 μM for 4 h followed by MG132 (10 μM) 1 h
# Experimental: (§1) U2OS-GFP-H2B cells were treated with vehicle control (0.02% DMSO, v/v) or 1 μM THZ-4-63-1, and subjected to live imaging. Time is given in hours:minutes, relative to the initial time of drug treatment. The arrow points to chromosomes that haven't incorporated into the metaphase plate. […] MDA-MB-468 cells expressing tet-on-shMELK and GFPH2B cells were treated with doxycycline for three days, before subjected to live imaging. Panel D contains images of immunoblotting of lysates from cells treated as in Panel C. Panel E contains images showing mitotic cell death in a cell treated with THZ-4-63-1. The table indicates the quantification of cell death events. Panel F contains images showing that treatment with THZ-4-63-1 impairs chromosome alignment. Cells were treated with DMSO control, or THZ-4-63-1 (5 μM) for 4 hours, followed by MG132 (10 μM) for 1 h. Cells were fixed and stained with anti-CREST, anti-α-tubulin, and DAPI to visualize chromosomes and kinetochores. The histogram indicates the quantifications of cells in metaphase with misaligned chromosomes.
# Indeed, we observed in asynchronized cells that MELK inhibition caused the appearance of scatted chromosome near the metaphase plate (arrowed, FIG. 2A). […]
# MDA-MB-468 cells = assay: Live imaging of chromosome alignment in MDA-MB-468 GFP-H2B cells; format: cell-based, human; settings: 1 μM
# Experimental: MDA-MB-468 cells stably expressing GFP-H2B were treated with vehicle control, or 1 μM THZ-4-63-1, and immediately subjected to live imaging. Time given in hours:minutes, relative to the starting point of treatment. […] Each dot represent an individual mitotic event.
# To utilize this novel compound for probing the roles of MELK in mitosis, we first treated asynchronized U2OS cells with THZ-4-63-1 (1 μM), and subjected the cells for live-cell imaging. The fusion protein GFP-Histone H2B was stably introduced into the cells to facilitate observing chromosome dynamics^2,7. […] MELK inhibition also delayed mitotic progression in human breast cancer cell line, MDA-MB-468 (FIG. 6). […] Together, these findings indicate that MELK is novel regulator for the normal progression of mitosis, and that inactivation or depletion of MELK induces a metaphase-like arrest in cancer cells.
# [2] = test system: Cyclin B1, MELK, and Aurora B; assay: Spindle assembly checkpoint signaling, abundance of mitotic factors by immunoblotting; format: cell-based; settings: nocodazole- or paclitaxel-arrested cells
# Experimental: (§2) Mitotic cells were treated with THZ-4-63-1 at indicated concentrations for 4 h. Cells were collected for immunoblotting. Panel B contains time-lapse images of U2OS-(H2B-GFP) cells treated with THZ-4-63-1 (5 μM). […] Panel C contains blots showing proteasome-mediated degradation of Cyclin B1, Aurora B and MELK in THZ-4-63-1-induced mitotic slippage. Mitotic cells were treated as in Panel A with THZ-4-63-1 (5 μM), or MG132 (10 μM), or both for 4 h. Panel D contains a graph showing quantification of cell proliferation in the indicated breast cancer cell lines, which were treated with vehicle control or THZ-4-63-1 for one week (Top) and also contains bright-field images acquired from control cells or cells treated with THZ-4-63-1 (111 nM) (Bottom). […] Cells were treated with indicated drugs, and harvested in ten days for quantification of cell growth. The bold curve depicts the theoretic prediction of an additive action between paclitaxel and THZ-4-63-1.
# In Panel A, paclitaxel-arrested cells were treated with THZ-4-63-1 at indicated concentrations for 4 h. Cells were collected for immunoblotting. In Panel B, nocodazole- (top) or paclitaxel-arrested mitotic cells were treated with vehicle control or THZ-4-63-1 (5 μM) for increasing time. Cell lysates were collected for immunoblotting. […]
# U2OS cells = assay: Live-cell imaging of mitotic progression in U2OS-GFP-H2B cells; format: cell-based, human; settings: 1 μM, asynchronized U2OS cells; control 31.1 min
# Experimental: as §1
# To utilize this novel compound for probing the roles of MELK in mitosis, we first treated asynchronized U2OS cells with THZ-4-63-1 (1 μM), and subjected the cells for live-cell imaging. The fusion protein GFP-Histone H2B was stably introduced into the cells to facilitate observing chromosome dynamics^2,7. […]
# U2OS-(H2B-GFP) cells = assay: Mitotic slippage, time-lapse imaging of U2OS-(H2B-GFP) cells; format: cell-based, human; settings: 5 μM, 4 h exposure
# Experimental: as §2
# Centromeric localization of CPC has been implicated in checkpoint signaling^8. […] We further found an impaired spindle checkpoint in cells with MELK knockdown (FIG. 9C).
# MELK = MELK (Homo sapiens, UniProt Q14680); assay: Z′-LYTE biochemical assay, MELK inhibition; parameters: purchased Life Technologies; settings: 25 uM ATP concentration; read-out: MELK IC50 as determined by Z′-LYTE biochemical assay
# Experimental: The invention also provides methods for inhibiting MELK, comprising contacting MELK with a compound of the invention in an amount effective to inhibit MELK. In certain embodiments, the method is conducted in vitro. In certain embodiments, the method is conducted in vivo. Inhibition of MELK can be determined by the Z′-LYTE® biochemical assay from Life Technologies (Life Technologies Z′-LYTE® Screening Protocol and Assay Conditions, June 2012, incorporated herein by reference).
# Generally, IC50 against MELK was determined by Z′-LYTE® biochemical assay and are measured in nM at 25 uM ATP concentration.
# Chain of MELK (Q14680 whole entry): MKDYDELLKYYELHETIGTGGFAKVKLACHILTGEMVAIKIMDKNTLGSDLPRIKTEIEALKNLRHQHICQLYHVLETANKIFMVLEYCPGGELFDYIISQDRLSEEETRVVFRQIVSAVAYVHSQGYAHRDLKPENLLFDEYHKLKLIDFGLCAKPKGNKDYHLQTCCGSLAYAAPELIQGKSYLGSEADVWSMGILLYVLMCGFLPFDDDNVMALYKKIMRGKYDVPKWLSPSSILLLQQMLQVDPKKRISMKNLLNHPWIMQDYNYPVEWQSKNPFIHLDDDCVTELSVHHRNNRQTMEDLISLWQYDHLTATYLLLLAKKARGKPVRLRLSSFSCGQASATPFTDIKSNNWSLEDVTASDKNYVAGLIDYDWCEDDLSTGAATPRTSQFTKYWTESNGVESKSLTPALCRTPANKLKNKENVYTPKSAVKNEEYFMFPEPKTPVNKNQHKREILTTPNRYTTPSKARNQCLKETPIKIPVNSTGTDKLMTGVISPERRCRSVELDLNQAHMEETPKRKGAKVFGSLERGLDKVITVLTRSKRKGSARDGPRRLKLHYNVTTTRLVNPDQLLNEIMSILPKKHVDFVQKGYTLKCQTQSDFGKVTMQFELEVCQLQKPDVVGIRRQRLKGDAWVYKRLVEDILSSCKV
# Chain of PLK1 (P53350 whole entry, species assumed): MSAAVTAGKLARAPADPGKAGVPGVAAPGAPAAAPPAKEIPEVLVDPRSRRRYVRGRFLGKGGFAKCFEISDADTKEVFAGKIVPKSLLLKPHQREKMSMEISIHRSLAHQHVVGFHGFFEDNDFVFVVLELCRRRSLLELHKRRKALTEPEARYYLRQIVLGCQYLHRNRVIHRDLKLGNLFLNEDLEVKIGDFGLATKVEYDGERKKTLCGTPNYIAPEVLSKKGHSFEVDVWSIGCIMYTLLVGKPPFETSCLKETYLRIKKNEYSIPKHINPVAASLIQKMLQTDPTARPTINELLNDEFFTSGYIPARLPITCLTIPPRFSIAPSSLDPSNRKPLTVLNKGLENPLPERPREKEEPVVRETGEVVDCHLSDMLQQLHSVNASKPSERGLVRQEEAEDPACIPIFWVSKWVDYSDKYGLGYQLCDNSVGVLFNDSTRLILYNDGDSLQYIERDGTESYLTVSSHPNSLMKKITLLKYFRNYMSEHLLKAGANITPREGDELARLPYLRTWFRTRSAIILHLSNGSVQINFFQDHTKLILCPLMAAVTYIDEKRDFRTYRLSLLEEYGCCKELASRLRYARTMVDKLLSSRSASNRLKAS
smiles,measurement,setting,value
CN(C)Cc1ccc(-n2c(=O)ccc3cnc4ccc(-c5cc(Cl)c(O)c(Cl)c5)cc4c32)cc1 [THZ-4-63-1],MELK kinase activity more sensitive than that of PLK1,PLK1,20 fold
same,Cells with failure in metaphase chromosome alignment,[1],approximately 80%
same,Chromosome alignment,MDA-MB-468 cells,inhibits chromosome alignment
same,"Protein amount of mitotic factors (Cyclin B1, MELK, Aurora B)",[2],efficiently reduced the protein amount of these mitotic factors
same,"Time from nuclear envelope breakdown (NEBD) to anaphase, mean",U2OS cells,66.4 min
same,Cells undergoing mitotic slippage,U2OS-(H2B-GFP) cells,nearly half
same,IC50,MELK,10.8 nM and 10.5 nM
